Measured values as given in patent publication US4882359A, “Azacycloalkane derivatives, absorption promoters containing the derivatives as the effective ingredient and external preparations containing the absorption promoters” (priority 1986, dated 1989).
Blank lines part the entries; values can stand above or below the compound they belong to.

Experiments:
[1] = Skin penetration of pindolol from test solution, diffusion cell method; assay type: in vitro ADME, female hairless mice
[2] = Skin penetration of 5-FU from test solution, diffusion cell method; assay type: in vitro ADME, female hairless mice; settings: for Cumulative amount of 5-FU permeated, 24 hrs later / Cumulative amount of 5-FU permeated, 48 hrs later: 3.0 wt.% test compound, 5-FU 1.8 wt.% in ethanol/water; for Activity (5-FU permeation): relative to Control (Vehicle) = 1.0
[3] = Percutaneous absorption of pindolol in rats, serum concentration by HPLC; assay type: in vivo, Wistar-strain male rats; settings: for Activity (serum concentration of pindolol): relative to Control (Vehicle) = 1.0 of the same series in Table 5
Protocol: There were provided groups each consisting of four Wistar-strain male rats each weighing 200 to 250 g and having their dorsal skin hair shorn with an electric shaver.
Each of the test solutions (pindolol-containing preparations) was applied to the shorn dorsal skin of test rats of one of the groups in an amount of 150 μl/2.5×2.5 cm^2 and then sealed up. Three hours after the application of the test solution, the blood of the test rats was collected and measured for serum concentration of pindolol by HPLC.
For comparison, the above procedure was followed except that there was used a control solution which was the same as said test solution except for non-use of any compounds of this invention, and also followed using a comparative test solution which was the same as the test solution except for the substitution of a comparative compound for the compound of this invention.

in vivo = settings: rat
[4] = for Activity (phenol red permeation): relative to Control (Vehicle) = 1.0
Protocol: There were investigated the effects of the compound of this invention on the percutneous penetration of phenol red which is difficult to be penetrated using the dorsal skin of female hairless mice (each 9 weeks old) by a diffusion cell method which comprised adding 0.5 ml of a sodium chloride injection containing 2 mM of phenol red to the donor side and measuring the amount of phenol red permeated into the receptor layer by high-pace optimal densitometric meter (559 nm).

[5] = tested on: dorsal skin of Japanese-native rabbits; assay: Primary skin irritation test (Draize's method); assay type: in vivo; design: key to Average irritation score, 24 hours / Average irritation score, 48 hours / Average irritation score, 72 hours: Draize points: 0-2 mild, 2-6 moderate, 6-8 severe irritation; settings: for Average irritation score, 24 hours: 3% solution in polyethylene glycol 300, 24 hours after removal of plaster; for Average irritation score, 48 hours: 3% solution in polyethylene glycol 300, 48 hours after removal of plaster; for Average irritation score, 72 hours: 3% solution in polyethylene glycol 300, 72 hours after removal of plaster; for Overall evaluation (skin irritation): graded from irritation scores at 24, 48 and 72 hours
Protocol: As one of tests on the compounds of this invention for their topical toxicity, a primary skin irritation test was made on skins using rabbits as the subjects. More particularly, an adhesive plaster for use in batch tests, to which 100 μl of a 3% test solution of each of the compounds of Examples 12, 37, 57 and 73 of this invention in 100 ml of polyethylene glycol 300 had dropwise been applied, was applied to the hair-shorn dorsal skin of three Japanese-native rabbits weighing 2.5 to 3.0 kg each and then sealed up on the dorsal skin for 24 hours. The rabbits were evaluated three times for their dorsal skin irritative reaction 24, 48 and 72 hours after removal of the plaster by using a method in accordance with the Draize's method.
The results are as shown in Table 18 in which the overall evaluation is represented by the following equation. [formula] and is graded into mild irritation (0-2 points), moderate irritation (2-6 points) and severe irritation (6-8 points).

glucose level in blood [6] = assay: Rectal absorption of insulin from suppository: glucose level in blood of rabbits; assay type: in vivo, male rabbits; settings: insulin suppository 0.3 g/kg rectal, 3% promoter where used
Protocol: There were prepared the following suppositories for use in normal, control and test groups, respectively, each group consisting of five male rabbits weighing 2.5 to 3.5 kg each.
The three suppositories were into the rectums of the rabbit groups in an amount of 0.3 g suppository/kg, respectively. Thereafter, blood was collected from the rabbits through their ear vein three times with the lapse of time to measure the three collected blood samples for glucose level in blood by a glucose oxidase method. […] The results are indicated in terms of a change in glucose level in blood with respect to the glucose level in blood prior to the administration of the suppositories.

glucose level in blood [7] = assay: Percutaneous absorption of glibenclamide: glucose level in blood of glucose-loaded rats; assay type: in vivo, Wistar-strain male rats
Protocol: There were prepared control and test solutions having the following respective formulations (Table 8): […]
In the tests, there were used groups each consisting of four Wistar-strain male rats which weighed about 200 to 250 g and abstained from food for 24 hours.
Each of the control solutions A and B and the test solution indicated in the above Table 8 was applied to the dorsal skins, shorn by an electric clipper or shaver, of the rats of one group in an amount of 175 μl/2.5×2.5 cm^2 and then sealed up. Three hours after sealing up, 1.5 ml of 20% glucose was subcutaneously injected into said rats. Two hours after the glucose injection, the blood of the rats was collected and measured for glucose level in blood.
For comparison, the above procedure was followed except that azone was substituted for the compound of Example 12 in the test solution.
For further comparison, the blood of rats of one group which had been subjected only to 24 hours' abstinence from food (this group being hereinafter referred to as "normal group"), was measured for glucose level in blood. The rat groups to which the control solution A, the control solution B and the test solution were applied, are hereinafter referred to as "control group A", "control group B" and "test group", respectively.

Cumulative amount of pindolol permeated, 24 hrs later [1]: 1.3 ± 0.1 µM | Cumulative amount of pindolol permeated, 48 hrs later [1]: 2.7 ± 0.2 µM | Cumulative amount of 5-FU permeated, 24 hrs later [2]: 96 ± 15 µM | Cumulative amount of 5-FU permeated, 48 hrs later [2]: 178 ± 9 µM | Activity (5-FU permeation) [2]: 0.9
SMILES: CCN1CCCC1=O [1-ethyl-2-pyrolidone, 1-ethyl-2-pyrrolidone]
Activity (pindolol permeation) ([1]; test solution, relative to Control (Vehicle) = 1.0): 0.7 | Activity (serum concentration of pindolol) [3]: 2.8

SMILES: CN1CCCC1=O [1-methyl-2-pyrolidone, 1-methyl-2-pyrrolidone, reference compound]
LD50 at 168 h (in vivo; po): 1000 to 2000 mg/kg | LD50 at 168 h (in vivo; sc): 2000 to 5000 mg/kg | Cumulative amount of 5-FU permeated, 24 hrs later [2]: 83 ± 15 µM | Cumulative amount of 5-FU permeated, 48 hrs later [2]: 192 ± 20 µM | Activity (5-FU permeation) [2]: 0.9 | Activity (serum concentration of pindolol) [3]: 1.9

SMILES: CCCCCCCCCCCCN1CCCCCC1=O [Azone, 1-n-dodecylazacycloheptane-2-one, reference compound]
Cumulative amount of phenol red permeated, 24 hrs later ([4]; 3.0 wt.% test compound, phenol red, 24 hrs): 8.4 ± 7.6 µM | Cumulative amount of phenol red permeated, 48 hrs later ([4]; 3.0 wt.% test compound, phenol red, 48 hrs): 14.5 ± 0.7 µM | Activity (phenol red permeation) [4]: 24.2 | Average irritation score, 24 hours [5]: 3.8 ± 1.3 | Average irritation score, 48 hours [5]: 3.8 ± 1.7 | Average irritation score, 72 hours [5]: 5.5 ± 1.9 | Overall evaluation (skin irritation) [5]: Moderate (moderate irritation (2-6 points)) | irritating actions on the skins (in words) ([5]; rabbit, in vivo): moderate grade irritating actions | LD50 at 168 h (in vivo; po): > 5000 mg/kg | LD50 at 168 h (in vivo; sc): > 5000 mg/kg | Changes of glucose level to the initial, 0.5 hr (glucose level in blood [6]; 0.5 hr): -4 mg/dL | Changes of glucose level to the initial, 1 hr (glucose level in blood [6]; 1 hr): +2 mg/dl | Changes of glucose level to the initial, 3 hrs (glucose level in blood [6]; 3 hrs): +1 mg/dl | Glucose level (glucose level in blood [7]; glibenclamide 0.6 wt.% solution on dorsal skin, two hours after s.c. 20% glucose): 133 ± 13 mg/dL | Inhibition rate (glucose level in blood [7]; glucose level, relative to control group A and normal group): 25.0%

Serum concentration of pindolol ([3]; rat, in vivo, 180 min): 12.0 ± 4.2 ng/mL
SMILES: C[S+](C)[O-] [DMSO, dimethylsulfoxide, reference compound]
Activity (serum concentration of pindolol) [3]: 1.0

SMILES: CCCCCCCCCSCCN1CCCC1=O [Example 1, 1-[2-(n-nonylthio)ethyl] azacyclopentane-2-one]
Activity (serum concentration of pindolol) [3]: 30.0

SMILES: CCCCCSCCCCCCN1CCCCCC1=O [Example 2, 1-[6-(n-pentylthio)hexyl] azacycloheptane-2-one]
Activity (serum concentration of pindolol) [3]: 12.7

SMILES: CCCCCCCCOCCCN1CCCCCC1=O [Example 4, 1-[3-(n-octyloxy)propyl] azacycloheptane-2-one]
Activity (serum concentration of pindolol) [3]: 31.5

SMILES: CCCCCCCCCCSCCCN1CCCC1=O [Example 16]
Activity (serum concentration of pindolol) [3]: 32.0

SMILES: CCCCCCCSCCCCCN1CCCC1=O [Example 20]
Activity (serum concentration of pindolol) [3]: 40.6

SMILES: CCCCCCCSCCCN1CCCCCC1=O [Example 29]
Activity (serum concentration of pindolol) [3]: 14.8

SMILES: CCCCCCCCSCCCN1CCCCCC1=O [Example 30]
Activity (serum concentration of pindolol) [3]: 12.7

SMILES: CCCCCCCCCSCCCN1CCCCCC1=O [Example 31]
Activity (serum concentration of pindolol) [3]: 27.5

SMILES: CCCCCSCCCCN1CCCCCC1=O [Example 35]
Activity (serum concentration of pindolol) [3]: 8.8

SMILES: CCCCCCSCCCCN1CCCCCC1=O [Example 36]
Activity (serum concentration of pindolol) [3]: 19.6

SMILES: CCCCCCCSCCCCN1CCCCCC1=O [Example 37]
Activity (phenol red permeation) [4]: 54.2 | Average irritation score, 24 hours [5]: 0.6 ± 2 | Average irritation score, 48 hours [5]: 0.5 ± 0.5 | Average irritation score, 72 hours [5]: 0.5 ± 0.5 | Overall evaluation (skin irritation) [5]: Mild (mild irritation (0-2 points)) | LD50 at 168 h (in vivo; po): > 5000 mg/kg | LD50 at 168 h (in vivo; sc): > 5000 mg/kg | Activity (serum concentration of pindolol) [3]: 16.2

SMILES: CCCCCCCCSCCCCN1CCCCCC1=O [Example 38]
Activity (serum concentration of pindolol) [3]: 12.0
